Test results published in paper PMC6125496 (Antimicrobial Agents and Chemotherapy, 2018).
≈ marks a conversion by molar mass, not a printed value. Where two headings read alike, the source gives them in different places. Non-standard residues stand in square brackets, D forms with d. Residues, ends and D or L forms follow the SMILES beside them. Dab(3S-OH) = NC[C@H](O)[C@H](N)C(=O)O; Phe(2-F) = N[C@@H](Cc1ccccc1F)C(=O)O; ΔZArg = N=C(N)NCC/C=C(\N)C(=O)O; dOrn = NCCC[C@@H](N)C(=O)O; Dab = NCC[C@H](N)C(=O)O

Legend:
Escherichia coli (101) = assay: microbe, parasite or virus in culture; details: 101 clinical isolates
From the text: (§1) Reference strains are from the German Collection of Microorganisms and Cell Cultures (DSMZ), the American Type Culture Collection (ATCC), the National Collection of Type Cultures (NCTC), and the Medical and Molecular Microbiology, Faculty of Science and Medicine, University of Fribourg, Switzerland.

[1] = system: Klebsiella pneumoniae ATCC 43816; assay: microbe, parasite or virus in culture
From the text: as §1

[2] = system: Ciprofloxacin-resistant E. coli (19); assay: microbe, parasite or virus in culture
From the text: as §1

[3] = system: Serratia marcescens DSM 17174; assay: microbe, parasite or virus in culture
From the text: as §1

[4] = system: Klebsiella pneumoniae NCTC 13443; assay: microbe, parasite or virus in culture
From the text: as §1

[5] = system: Staphylococcus aureus ATCC 29213; assay: microbe, parasite or virus in culture
From the text: as §1

[6] = system: Klebsiella pneumoniae ATCC BAA-1904; assay: microbe, parasite or virus in culture
From the text: as §1

[7] = system: Acinetobacter baumannii ATCC 19606; assay: microbe, parasite or virus in culture
From the text: as §1

[8] = system: Escherichia coli ATCC 25922; assay: microbe, parasite or virus in culture
From the text: as §1

[9] = system: Escherichia coli BAA-2471; assay: microbe, parasite or virus in culture
From the text: as §1

[10] = system: Gentamicin-resistant K. pneumoniae (16); assay: microbe, parasite or virus in culture
From the text: as §1

[11] = system: Enterococcus faecium DSM 20477; assay: microbe, parasite or virus in culture
From the text: as §1

[12] = system: Klebsiella pneumoniae (56); assay: microbe, parasite or virus in culture
From the text: as §1

[13] = system: Citrobacter freundii DSM 30039; assay: microbe, parasite or virus in culture
From the text: as §1

[14] = system: Enterobacter aerogenes DSM 30053; assay: microbe, parasite or virus in culture
From the text: as §1

[15] = system: Streptococcus pneumoniae DSM 2134; assay: microbe, parasite or virus in culture
From the text: as §1

[16] = system: Ciprofloxacin-resistant K. pneumoniae (27); assay: microbe, parasite or virus in culture
From the text: as §1

[17] = system: Escherichia coli BAA-2469; assay: microbe, parasite or virus in culture
From the text: as §1

[18] = system: Staphylococcus epidermidis ATCC 12228; assay: microbe, parasite or virus in culture
From the text: as §1

[19] = system: Klebsiella pneumoniae NCTC 13442; assay: microbe, parasite or virus in culture
From the text: as §1

[20] = system: Enterobacter cloacae (13); assay: microbe, parasite or virus in culture
From the text: as §1

[21] = system: Pseudomonas aeruginosa DSM 1117; assay: microbe, parasite or virus in culture
From the text: as §1

[22] = system: Citrobacter kozeri DSM 4595; assay: microbe, parasite or virus in culture
From the text: as §1

[23] = system: Klebsiella pneumoniae NCTC 13439; assay: microbe, parasite or virus in culture
From the text: as §1

[24] = system: Klebsiella pneumoniae ATCC BAA-1905; assay: microbe, parasite or virus in culture
From the text: as §1

[25] = system: Citrobacter freundii (16); assay: microbe, parasite or virus in culture
From the text: as §1

[26] = system: Stenotrophomonas maltophilia ATCC 13637; assay: microbe, parasite or virus in culture
From the text: as §1

[27] = system: Enterobacter cloacae DSM 14563; assay: microbe, parasite or virus in culture
From the text: as §1

[28] = system: Enterococcus faecalis DSM 2570; assay: microbe, parasite or virus in culture
From the text: as §1

Escherichia coli MIN = details: Ambler class A carbapenemase; KPC-3 + OXA-9
From the text: as §1

[29] = system: Polymyxin B-resistant E. coli (2)
From the text: as §1

[30] = system: Klebsiella pneumoniae DUB; details: Ambler class D carbapenemase; OXA-48 + CTX-M15 + TEM-1 + SHV-1 + OXA-1 + CMY-2
From the text: as §1

Citrobacter freundii MAU = details: Ambler class C carbapenem resistant; AmpC overexpressed + TEM-3
From the text: as §1

[31] = system: Enterobacter cloacae 10.72; details: Ambler class C carbapenem resistant; AmpC overexpressed + TEM-1 + OXA-1
From the text: as §1

[32] = 19 ciprofloxacin-resistant isolates
[33] = Ambler class B carbapenemase, NDM-1
[34] = 16 gentamicin-resistant isolates
[35] = 27 ciprofloxacin-resistant isolates

For polymyxin B [PMB], the “MIC 50%” value (Escherichia coli (101)) was 0.5 µg/mL, the “MIC 90%” value (Escherichia coli (101)) was 1 µg/mL and the MIC ([1]; reference strain) was 1 µg/mL. For the same compound, the “MIC 50%” value [2, 32] was 0.5 µg/mL, the “MIC 90%” value [2, 32] was 1 µg/mL and the “MIC range” value [2, 32] was 0.5 to 32 µg/mL. For the same compound, the MIC ([3]; reference strain) was >32 µg/mL, the MIC [4, 33] was 0.5 µg/mL and the MIC ([5]; reference strain) was 16 µg/mL. For the same compound, the MIC ([6]; Ambler class A carbapenemase, KPC-3) was 0.5 µg/mL, the MIC ([7]; reference strain) was 0.5 µg/mL and the MIC ([8]; reference strain) was 0.5 µg/mL. The MIC [9, 33] was 0.25 µg/mL, the “MIC 50%” value [10, 34] was 0.5 µg/mL and the “MIC 90%” value [10, 34] was 1 µg/mL. For the same compound, the “MIC range” value [10, 34] was 0.5 to 1 µg/mL, the MIC ([11]; reference strain) was >32 µg/mL and the “MIC 50%” value ([12]; 56 clinical isolates) was 0.5 µg/mL. For the same compound, the “MIC 90%” value ([12]; 56 clinical isolates) was 4 µg/mL, the “MIC range” value ([12]; 56 clinical isolates) was 0.25 to 32 µg/mL and the MIC ([13]; reference strain) was 0.5 µg/mL. For the same compound, the MIC ([14]; reference strain) was 0.5 µg/mL, the MIC ([15]; reference strain) was >32 µg/mL and the “MIC 50%” value [16, 35] was 0.5 µg/mL. For the same compound, the “MIC 90%” value [16, 35] was 1 µg/mL, the MIC [17, 33] was 0.25 µg/mL and the MIC ([18]; reference strain) was 16 µg/mL. For the same compound, the MIC ([19]; Ambler class D carbapenemase, OXA-48) was 0.5 µg/mL, the “MIC 50%” value ([20]; 13 clinical isolates) was 0.5 µg/mL and the “MIC 90%” value ([20]; 13 clinical isolates) was 8 µg/mL. The “MIC range” value ([20]; 13 clinical isolates) was 0.5 to 16 µg/mL, the MIC ([21]; reference strain) was 1 µg/mL and the MIC ([22]; reference strain) was 0.25 µg/mL. The MIC ([23]; Ambler class B carbapenemase, VIM-1) was 0.5 µg/mL, the MIC ([24]; Ambler class A carbapenemase, KPC-2) was 0.5 µg/mL and the “MIC 50%” value ([25]; 16 clinical isolates) was 0.5 µg/mL. For the same compound, the “MIC 90%” value ([25]; 16 clinical isolates) was 1 µg/mL, the “MIC range” value ([25]; 16 clinical isolates) was 0.25 to 1 µg/mL and the MIC ([26]; reference strain) was 1 µg/mL. The MIC ([27]; reference strain) was 1 µg/mL, the MIC ([28]; reference strain) was >32 µg/mL and the MIC (Escherichia coli MIN) was 0.5 µg/mL. For the same compound, the “MIC range” value ([29]; 2 polymyxin B-resistant isolates) was 4 to 32 µg/mL, the MIC [30] was 0.5 µg/mL and the MIC (Citrobacter freundii MAU) was 0.5 µg/mL. For the same compound, the MIC [31] was 0.5 µg/mL.
With `N=C(N)NCC/C=C(\NC(=O)[C@H](CCCCN)NC(=O)[C@H](Cc1ccccc1F)NC(=O)[C@@H]1CCCN1C(=O)[C@@H](CCCN)NC(=O)CNC(=O)[C@H](CCN)NC(=O)[C@@H](NC(=O)[C@@H](N)CCCCN)[C@@H](O)CN)C(=O)O` [NOSO-502] (H-K[Dab(3S-OH)][Dab]G[dOrn]P[Phe(2-F)]K[ΔZArg]-OH) the “MIC 50%” value (Escherichia coli (101)) was 4 µg/mL (≈ 3.71 µM), the “MIC 90%” value (Escherichia coli (101)) was 8 µg/mL (≈ 7.42 µM) and the MIC ([1]; ATCC 43816) was 1 µg/mL (≈ 0.927 µM). For the same compound, the “MIC range” value ([2]; Ciprofloxacin-resistant (19)) was 2 to 32 µg/mL, the MIC ([3]; DSM 17174) was 4 µg/mL (≈ 3.71 µM) and the MIC ([4]; NCTC 13443) was 1 µg/mL (≈ 0.927 µM). For the same compound, the MIC ([5]; ATCC 29213) was 1 µg/mL (≈ 0.927 µM), the MIC ([6]; ATCC BAA-1904) was 2 µg/mL (≈ 1.85 µM) and the MIC ([7]; ATCC 19606) was >64 µg/mL. The MIC ([8]; ATCC 25922) was 4 µg/mL (≈ 3.71 µM), the MIC ([9]; BAA-2471) was 4 µg/mL (≈ 3.71 µM) and the “MIC range” value ([10]; Gentamicin-resistant (16)) was 0.5 to 2 µg/mL. For the same compound, the MIC ([11]; DSM 20477) was 64 µg/mL (≈ 59.4 µM), the “MIC range” value [12]; 56 was 0.5 to 16 µg/mL and the MIC ([13]; DSM 30039) was 2 µg/mL (≈ 1.85 µM). For the same compound, the MIC ([14]; DSM 30053) was 2 µg/mL (≈ 1.85 µM), the MIC ([15]; DSM 2134) was 64 µg/mL (≈ 59.4 µM) and the “MIC range” value ([16]; Ciprofloxacin-resistant (27)) was 0.5 to 16 µg/mL. The MIC ([17]; BAA-2469) was 2 µg/mL (≈ 1.85 µM), the MIC ([18]; ATCC 12228) was 0.25 µg/mL (≈ 0.232 µM) and the MIC ([19]; NCTC 13442) was 1 µg/mL (≈ 0.927 µM). The “MIC range” value [20]; 13 was 1 to 4 µg/mL, the MIC ([21]; DSM 1117) was >64 µg/mL and the MIC ([22]; DSM 4595) was 2 µg/mL (≈ 1.85 µM). The MIC ([23]; NCTC 13439) was 1 µg/mL (≈ 0.927 µM), the MIC ([24]; ATCC BAA-1905) was 1 µg/mL (≈ 0.927 µM) and the “MIC range” value [25] was 1 to 4 µg/mL. For the same compound, the MIC ([26]; ATCC 13637) was 16 µg/mL (≈ 14.8 µM), the MIC ([27]; DSM 14563) was 2 µg/mL (≈ 1.85 µM) and the MIC ([28]; DSM 2570) was >64 µg/mL. The MIC (Escherichia coli MIN) was 4 µg/mL, the “MIC range” value ([29]; Polymyxin B-resistant (2)) was 4 to 8 µg/mL and the MIC [30] was 0.5 µg/mL. For the same compound, the MIC (Citrobacter freundii MAU) was 1 µg/mL and the MIC [31] was 1 µg/mL.
